This passage reports GI50 and TGI results from PubChem BioAssay (NCI).

Several values for one entry are separate records, joined by “and”; a condition that tells them apart may be missing. Identical values can stand only once.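 Step 1: Grow cells in 96-well plates. Step 2: Expose to compound for 48 hours at 5 concentrations. Step 3: Interpolate endpoints linearly; if unreached, use highest concentration. Abbreviation: GI50, concentration required for 50% inhibition of growth. TGI marks complete inhibition of growth.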

What all share (assay): inhibition of tumour cell growth, NCI panel, 48 h
The test system of assay [1] is RPMI-8226 leukemia.
Assay [2] deals with HOP-92 NSCLC.
The subject of assay [3] is SK-MEL-2 melanoma.
Assay [4] relates to OVCAR-3 ovarian.
The subject of assay [5] is HL-60(TB) leukemia.
Assay [6] relates to U251 CNS.
Assay [7] concerns SK-OV-3 ovarian.
The subject of assay [8] is HOP-62 NSCLC.
For assay [9], the system named is A549 NSCLC.
Assay [10] deals with TK-10 renal.

As for `O=C(Nc1ncc(Cc2ccccc2Cl)s1)c1ccc2c(c1)OCCO2`, the GI50 in assay [1] was 0.479 µM; in assay [2], 4.08 µM; in assay [3], 0.667 µM; in [4], 0.285 µM; in [5], 0.396 µM; in assay [6] it was 0.4 µM. For the same compound, the GI50 in [7] is 0.537 µM; in [8], 0.592 µM; in assay [9] it was 0.466 µM; in assay [10], 0.672 µM. Moreover, the TGI was over 100 µM in assay [1]; over 81.8 µM in assay [2]; over 69.6 µM in assay [3]; 1.07 µM in assay [4]; over 51.6 µM in assay [6]; 22.6 µM in [7]. Besides, the TGI in assay [8] was over 82.9 µM; in assay [9] it was over 100 µM; in assay [10], over 40 µM.
As for `COc1c(O)ccc2c1CN1CCc3cc4c(cc3C1C2)OCO4` (configuration not stated), the TGI in assay [1] is over 100 µM; in assay [2], over 100 µM; in assay [3] it was over 92.9 µM; in assay [4] it was over 83.2 µM; in assay [5], over 100 µM; in [6], over 100 µM. Also, the TGI in assay [7] was over 100 µM; in assay [8] it was over 100 µM; in assay [9] it was over 100 µM; in [10], over 79.6 µM.
Turning to `CNC(=O)c1cccc(-c2ccc3c(N4CCOC[C@@H]4C)nc(N4CCOC[C@@H]4C)nc3n2)c1`, the GI50 in assay [1] is 0.0486 µM and 0.0473 µM and 0.0363 µM; in assay [2], 0.0187 µM and < 0.0133 µM; in assay [3], 0.0889 µM and 0.216 µM and 0.215 µM; in [4] it was 0.0597 µM and 0.222 µM and 0.139 µM; in [5] it was 0.353 µM and 0.37 µM and 2.91 µM; in assay [6] it was 0.236 µM and 0.422 µM and 0.176 µM. Besides, the GI50 was 0.0333 µM and 0.0903 µM and 0.0446 µM in assay [7]; 0.153 µM and 0.273 µM and 0.17 µM in assay [8]; 0.124 µM and 0.242 µM and 0.142 µM in [9]; 0.0616 µM and 0.146 µM and 0.113 µM in assay [10]. The TGI is 0.238 µM and 0.0728 µM in assay [2]; 5.47 µM and 1.16 µM and 0.912 µM in [3]; 25.2 µM and > 10 µM and 64.1 µM in assay [5]; over 100 µM in assay [6]; 0.479 µM and 0.451 µM and 0.438 µM in [7]; > 100 µM and > 5.18 µM and 10.2 µM in assay [8]. Moreover, the TGI in assay [9] is > 100 µM and > 10 µM and 11.5 µM; in [10], 2.25 µM and 1.63 µM and 1.48 µM.
Turning to `Cc1c2cc[nH]c(=O)c2cc2c(=O)c3cnccc3[nH]c12`, the TGI in [1], in assay [2], in [3], in [4], in [5] and in assay [6] was over 100 µM throughout. In addition, the TGI in [7], in assay [8], in assay [9] and in assay [10] was over 100 µM each time.
With `CC(NNC(=S)N1CCCCCC1)c1ccc2ccccc2n1` (configuration not stated), the GI50 in [1] is 5.36 µM; in assay [2], 0.769 µM; in assay [3], 13.8 µM; in [4], 0.41 µM; in [5] it was 0.363 µM; in assay [6], 0.92 µM. For the same compound, the GI50 was 6.24 µM in assay [7], 3.93 µM in assay [8], 1.13 µM in assay [9] and 1.21 µM in assay [10]. The TGI is over 100 µM in assay [1]; 34.3 µM in assay [2]; 41.5 µM in assay [3]; 18.8 µM in assay [4]; 12.1 µM in assay [5]; 20.4 µM in assay [6]. Also, the TGI in [7] is 26.9 µM; in assay [8], over 100 µM; in assay [9], 27 µM; in [10] it was 21 µM.
For the compound `O=c1cc(-c2ccccc2)nc2n1CCN2Cc1ccccc1`, the GI50 in [1] was 15.6 µM; in assay [2], 42.8 µM; in assay [3], 20.5 µM; in [4] it was 27.3 µM; in [5], 33.1 µM; in assay [6] it was 30.5 µM. Moreover, the GI50 in assay [7] is 51.3 µM; in assay [8], 63.8 µM; in assay [9], 35.2 µM; in [10], 26.5 µM. The TGI in [1] is 39.9 µM; in [2] it was over 100 µM; in [3], 50.5 µM; in assay [4] it was 99.6 µM; in [5] it was 58.2 µM; in assay [6] it was over 100 µM. The TGI in assay [7] was over 100 µM; in assay [8] it was over 100 µM; in assay [9], over 100 µM; in assay [10], 95.7 µM.
Turning to `CCOC(CN=c1nc(N(C)C)ss1)OCC`, the TGI in assay [1] is 8.54 µM; in assay [2], 36 µM; in [3] it was 48.9 µM; in assay [4], over 46.4 µM; in assay [5], 12 µM; in assay [6], 29.9 µM. Further, the TGI was over 100 µM in assay [7], over 100 µM in [8], over 100 µM in assay [9] and 73.5 µM in assay [10].
On to `Cc1ccc2c(=O)c3cccc(CC(=O)O)c3oc2c1C`, for which the GI50 in assay [1], in [2], in assay [3], in assay [4], in [5] and in assay [6] was over 100 µM each time. Further, the GI50 in assay [7], in assay [8], in [9] and in assay [10] was over 100 µM in each case. Moreover, the TGI in assay [1], in [2], in assay [3], in [4], in assay [5] and in [6] was over 100 µM throughout. For the same compound, the TGI in assay [7], in [8], in assay [9] and in assay [10] was over 100 µM throughout.
Turning to `CCOC(=O)C(C)c1cc(C2(C)OCCO2)c(C)o1` (configuration not stated), the TGI in assay [1] was over 100 µM; in assay [2] it was 97.7 µM; in [3], over 100 µM; in assay [4], over 100 µM; in assay [5], over 100 µM; in assay [6], over 100 µM. Also, the TGI in [7], in assay [8], in assay [9] and in assay [10] was over 100 µM in each case.
In the case of `O=[N+]([O-])C1C2C=CC(C2)[C@H]1c1ccccc1Cl` (some centres not stated), the TGI in assay [1] is over 100 µM; in assay [2] it was over 75.6 µM; in assay [3] it was over 100 µM; in [4], over 31.6 µM; in assay [5], over 92.5 µM; in assay [6], over 100 µM. The TGI was over 31.6 µM in assay [7], over 10 µM in assay [8], over 100 µM in [9] and over 100 µM in assay [10].
